Data published in ChEMBL document CHEMBL1132093, “Fecal excretion pattern of bile acids in rats fed high fat diets and neomycin in induced colon tumorigenesis” (1999).

How the values were obtained:
Type in all cases: functional
Rattus norvegicus [1] = species: Rattus norvegicus; experiment: Effect on colon small bowel tumorigenesis in rats fed with safflower oil diet(Group 1 diet)
Rattus norvegicus [2] = species: Rattus norvegicus; experiment: Effect on colon large bowel tumorigenesis in rats fed with safflower oil diet(Group 1 diet)
Rattus norvegicus [3] = species: Rattus norvegicus; experiment: Average number of tumors per rat in colon large bowel tumorigenesis in rats fed with safflower oil diet(Group 1 diet)
Rattus norvegicus [4] = species: Rattus norvegicus; experiment: Effect on colon small bowel tumorigenesis in rats fed with cholesterol and cholic acid diet(Group 2 diet)
Rattus norvegicus [5] = species: Rattus norvegicus; experiment: Effect on colon large bowel tumorigenesis in rats fed with cholesterol and cholic acid diet(Group 2 diet)
Rattus norvegicus [6] = species: Rattus norvegicus; experiment: Average number of tumors per rat in colon small bowel tumorigenesis in rats fed with cholesterol and cholic acid diet(Group 2 diet)
Rattus norvegicus [7] = species: Rattus norvegicus; experiment: Average number of tumors per rat in colon large bowel tumorigenesis in rats fed with cholesterol and cholic acid diet(Group 2 diet)
Rattus norvegicus [8] = species: Rattus norvegicus; experiment: Average number of tumors per rat in colon small bowel tumorigenesis in rats fed with safflower oil diet(Group 1 diet)

With NC[C@@H]1O[C@H](O[C@H]2[C@@H](O)[C@H](O[C@@H]3[C@@H](O)[C@H](N)C[C@H](N)[C@H]3O[C@H]3O[C@H](CN)[C@@H](O)[C@H](O)[C@H]3N)O[C@@H]2CO)[C@H](N)[C@@H](O)[C@@H]1O [FRAMYCETIN] the Incidence (Rattus norvegicus [1]) was 22%, the Incidence (Rattus norvegicus [2]) was 98% and the No. of tumors (Rattus norvegicus [3]) was 3. For the same molecule, the Incidence (Rattus norvegicus [4]) was 25%, the Incidence (Rattus norvegicus [5]) was 80% and the No. of tumors (Rattus norvegicus [6]) was 0.5. The No. of tumors (Rattus norvegicus [7]) was 1.13 and the No. of tumors (Rattus norvegicus [8]) was 0.5.
